The text below walks through data of patent publication US9949964B2, “Tesofensine compositions” (Saniona A/S, priority 2016, dated 2018).

Data set [1] in a line: Drug excipient compatibility study, chemical stability of binary mixtures of tesofensine and excipients. Type of data set: physicochemical. From the text:
A compatibility study investigating the chemical stability of binary mixtures of tesofensine and pharmaceutically acceptable excipients has been conducted.

For data set [2] the following is noted: cited from earlier work.
The nature of data set [3]: Solubility of the active ingredient in granulating liquid. Type of data set: physicochemical. To be noted: ethanol/mixtures compared to pure water or ethanol. From the text:
Microcrystalline cellulose also was compatible with the active ingredient. Hydroxypropylcellulose was selected as binder due to its compatibility with the active ingredient. The amount of binder was adequate to provide sufficient resistance to crushing and plasticity of the granules. Crosscarmelllose sodium was selected as disintegrant as it is an effective disintegrant and is compatible with the active ingredient. The amount of croscarmellose sodium was sufficient to provide the desired disintegration. The amount of magnesium stearate selected was sufficient to avoid sticking to tableting tooling during compression. Ethanol was selected as co-solvent in the granulating liquid as ethanol evaporates easily for improved drying properties of the granulate.

Data set [4] can be described thus: Dissolution tests / dissolution profile. Type of data set: physicochemical. Here is the method:
The active ingredient dissolves from the coated tablets within 30 minutes. FIGS. 1, 2 and 3 show dissolution profiles for tesofensine compositions B and C with a dose strength of 0.25 mg, 0.5 mg and 1.0 mg.

With `O.OC[C@H]1O[C@@H](O[C@H]2[C@H](O)[C@@H](O)C(O)O[C@@H]2CO)[C@H](O)[C@@H](O)[C@H]1O` (stereo partly drawn) [lactose, lactose monohydrate], the “Compatibility of excipient with tesofensine” value in data set [1] is “compatible”.
As for `CCOC[C@H]1C2CCC(C[C@@H]1c1ccc(Cl)c(Cl)c1)N2C` (stereo partly drawn) [tesofensine, (3S,4R)-3-(3,4-dichlorophenyl)-4-(ethoxymethyl)-8-methyl-8-azabicyclo[3.2.1]octane], the in-vivo half-life entry in data set [2] is recorded as “in the range of days”. Further, the “Solubility of the active ingredient” value in data set [3] is “increased”. In addition, the Solubility entry in data set [4] is “readily soluble”.
With magnesium stearate, in data set [1], the “Compatibility of excipient with tesofensine” value is “Incompatibility” and the “Decomposition of tesofensine with excipient” value is “the extent of decomposition was low”.
